Key:
[1] = test system: SF-268 (CNS Cancer); assay: NCI one dose, SF-268; assay type: cell-based, human; conditions: SF-268, 1.00E-5 Molar one dose
Experimental: (§1) 3.4. Cell Proliferation Assay
(§2) Selected compounds were tested on a panel of 60 human cancer cell lines at the National Cancer Institute (NCI), Germantown, MD, USA. The cytotoxicity studies were conducted using a 48 h exposure protocol using the sulfo-rhodamine B assay.

[2] = test system: RXF 393 (Renal Cancer); assay: NCI one dose, RXF 393; assay type: cell-based, human; conditions: RXF 393, 1.00E-5 Molar one dose
Experimental: as §1, §2

[3] = test system: EKVX (Non-Small Cell Lung Cancer); assay: NCI one dose, EKVX; assay type: cell-based, human; conditions: 1.00E-5 Molar one dose
Experimental: as §1, §2

[4] = test system: panel of 60 human cancer cell lines; assay: NCI 60 cell panel one dose screen (whole panel); assay type: cell-based; design: Delta (One Dose Mean Graph): unit not given here; conditions: 1.00E-5 Molar one dose; for Range (One Dose Mean Graph): in % (unit assumed); for Mean Growth Percent: mean over tested cell lines
Experimental: as §1
Selected compounds were tested on a panel of 60 human cancer cell lines at the National Cancer Institute (NCI), Germantown, MD, USA. The cytotoxicity studies were conducted using a 48 h exposure protocol using the sulfo-rhodamine B assay. […]
X. NCI One Dose Mean Graph of sulfides 4a(A -J) and 4b(A-J)
The entire series of sulfides regrouping twenty synthesized FTI-candidates (4aA-J, 4bA-J) were selected by the National Cancer Institute (NCI) for evaluation of their antiproliferative activity against 60 cancer cell lines (see the followings twenty pages for full evaluation reports). […]
inhibiting 36% of the NCI-H522 cells. Such difference between IC50 on human FTase in the nanomolar range and IC50 on cancer cell growth in the micromolar range is characteristic to potent FTIs and was reported previously on different series of compounds (see for example ref erence in the references part […]
Of interest, none of the tested compounds at a high single dose (10 µM) in the full NCI 60 cell panel has shown a cytotoxic profile. […]
inhibitory potential on FTase raise good hope for further investigation of these series as agents fighting

[5] = test system: UACC-257 melanoma cells; assay: NCI one dose, UACC-257; assay type: cell-based, human; conditions: UACC-257, 1.00E-5 Molar one dose
Experimental: as §1, §2

[6] = test system: SF-539 (CNS Cancer); assay: NCI one dose, SF-539; assay type: cell-based, human; conditions: SF-539, 1.00E-5 Molar one dose
Experimental: as §1, §2

[7] = test system: SK-OV-3 (Ovarian Cancer); assay: NCI one dose, SK-OV-3; assay type: cell-based, human; conditions: SK-OV-3, 1.00E-5 Molar one dose
Experimental: as §1, §2

[8] = test system: MALME-3M (Melanoma); assay: NCI one dose, MALME-3M; assay type: cell-based, human; conditions: 1.00E-5 Molar one dose
Experimental: as §1, §2

[9] = test system: ACHN (Renal Cancer); assay: NCI one dose, ACHN; assay type: cell-based, human; conditions: 1.00E-5 Molar one dose
Experimental: as §1, §2

[10] = test system: K-562 leukaemia cells; assay: NCI one dose, K-562; assay type: cell-based, human; conditions: K-562, 1.00E-5 Molar one dose
Experimental: as §1, §2

[11] = test system: LOX IMVI (Melanoma); assay: NCI one dose, LOX IMVI; assay type: cell-based, human; conditions: 1.00E-5 Molar one dose
Experimental: as §1, §2

[12] = test system: SN12C (Renal Cancer); assay: NCI one dose, SN12C; assay type: cell-based, human; conditions: 1.00E-5 Molar one dose
Experimental: as §1, §2

[13] = test system: SF-295 (CNS Cancer); assay: NCI one dose, SF-295; assay type: cell-based, human; conditions: SF-295, 1.00E-5 Molar one dose
Experimental: as §1, §2

[14] = test system: NCI-H322M (Non-Small Cell Lung Cancer); assay: NCI one dose, NCI-H322M; assay type: cell-based, human; conditions: 1.00E-5 Molar one dose
Experimental: as §1, §2

[15] = test system: CCRF-CEM (Leukemia); assay: NCI one dose, CCRF-CEM; assay type: cell-based, human; conditions: 1.00E-5 Molar one dose
Experimental: as §1, §2

[16] = test system: BT-549 (Breast Cancer); assay: NCI one dose, BT-549; assay type: cell-based, human; conditions: BT-549, 1.00E-5 Molar one dose
Experimental: as §1, §2

[17] = test system: U251 (CNS Cancer); assay: NCI one dose, U251; assay type: cell-based, human; conditions: U251, 1.00E-5 Molar one dose
Experimental: as §1, §2

[18] = test system: RPMI-8226 (Leukemia); assay: NCI one dose, RPMI-8226; assay type: cell-based, human; conditions: RPMI-8226, 1.00E-5 Molar one dose
Experimental: as §1, §2

[19] = test system: SK-MEL-2 (Melanoma); assay: NCI one dose, SK-MEL-2; assay type: cell-based, human; conditions: SK-MEL-2, 1.00E-5 Molar one dose
Experimental: as §1, §2

[20] = test system: NCI-H23 (Non-Small Cell Lung Cancer); assay: NCI one dose, NCI-H23; assay type: cell-based, human; conditions: NCI-H23, 1.00E-5 Molar one dose
Experimental: as §1, §2

[21] = test system: OVCAR-3 (Ovarian Cancer); assay: NCI one dose, OVCAR-3; assay type: cell-based, human; conditions: OVCAR-3, 1.00E-5 Molar one dose
Experimental: as §1, §2

[22] = test system: UACC-62 (Melanoma); assay: NCI one dose, UACC-62; assay type: cell-based, human; conditions: UACC-62, 1.00E-5 Molar one dose
Experimental: as §1, §2

[23] = test system: OVCAR-5 (Ovarian Cancer); assay: NCI one dose, OVCAR-5; assay type: cell-based, human; conditions: OVCAR-5, 1.00E-5 Molar one dose
Experimental: as §1, §2

[24] = test system: HS 578T (Breast Cancer); assay: NCI one dose, HS 578T; assay type: cell-based, human; conditions: 1.00E-5 Molar one dose
Experimental: as §1, §2

[25] = test system: CAKI-1 (Renal Cancer); assay: NCI one dose, CAKI-1; assay type: cell-based, human; conditions: CAKI-1, 1.00E-5 Molar one dose
Experimental: as §1, §2

[26] = test system: OVCAR-4 (Ovarian Cancer); assay: NCI one dose, OVCAR-4; assay type: cell-based, human; conditions: OVCAR-4, 1.00E-5 Molar one dose
Experimental: as §1, §2

[27] = test system: KM12 (Colon Cancer); assay: NCI one dose, KM12; assay type: cell-based, human; conditions: KM12, 1.00E-5 Molar one dose
Experimental: as §1, §2

[28] = test system: A498 (Renal Cancer); assay: NCI one dose, A498; assay type: cell-based, human; conditions: A498, 1.00E-5 Molar one dose
Experimental: as §1, §2

[29] = test system: IGROV1 (Ovarian Cancer); assay: NCI one dose, IGROV1; assay type: cell-based, human; conditions: IGROV1, 1.00E-5 Molar one dose
Experimental: as §1, §2

[30] = test system: SNB-19 (CNS Cancer); assay: NCI one dose, SNB-19; assay type: cell-based, human; conditions: SNB-19, 1.00E-5 Molar one dose
Experimental: as §1, §2

[31] = test system: HCC-2998 (Colon Cancer); assay: NCI one dose, HCC-2998; assay type: cell-based, human; conditions: HCC-2998, 1.00E-5 Molar one dose
Experimental: as §1, §2

Structure (SMILES) | Growth Percent [1] | Growth Percent [2] | Growth Percent [3] | Delta (One Dose Mean Graph) [4] | Range (One Dose Mean Graph) [4] | Mean Growth Percent [4] | Growth Percent [5] | Growth Percent [6] | Growth Percent [7] | Growth Percent [8] | Growth Percent [9] | Growth Percent [10] | Growth Percent [11] | Growth Percent [12] | Growth Percent [13] | Growth Percent [14] | Growth Percent [15] | Growth Percent [16] | Growth Percent [17] | Growth Percent [18] | further results
O=C(NCc1ccccc1)[C@@H]1CS[C@H]2c3ccccc3C(=O)N12 [4aA] | 90.56% | 114.31% | 105.39% | 20.43 | 35.31 | 99.75% | 96.60% | 102.43% | 102.04% | 111.55% | 102.35% | 101.44% | 97.27% | 98.99% | 99.96% | 102.34% | 96.52% | 93.57% | 97.80% | 105.32% | Growth Percent [19]: 105.03%; Growth Percent [20]: 100.85%; Growth Percent [21]: 112.79%; Growth Percent [22]: 97.72%; Growth Percent [23]: 91.72%; Growth Percent [24]: 107.68%; Growth Percent [25]: 94.90%; Growth Percent [26]: 111.39%; Growth Percent [27]: 110.51%; Growth Percent [28]: 102.15%; Growth Percent [29]: 105.80%; Growth Percent [30]: 96.70%; Growth Percent [31]: 101.83%
O=C(NCc1ccccc1C(F)(F)F)[C@@H]1CS[C@H]2c3ccccc3C(=O)N12 [4aC] | 93.86% | 115.46% | 99.35% | 21.44 | 40.62 | 96.28% | 86.31% | 95.88% | 85.91% | 108.73% | 99.65% | 94.12% | 102.58% | 101.45% | 94.85% | 103.27% | 93.25% | 96.07% | 91.06% | 87.69% | Growth Percent [19]: 99.87%; Growth Percent [20]: 105.15%; Growth Percent [21]: 106.48%; Growth Percent [22]: 88.82%; Growth Percent [23]: 83.18%; Growth Percent [24]: 104.53%; Growth Percent [25]: 97.48%; Growth Percent [26]: 105.74%; Growth Percent [27]: 102.90%; Growth Percent [28]: 98.14%; Growth Percent [29]: 98.93%; Growth Percent [30]: 95.80%; Growth Percent [31]: 111.38%
O=C(NCc1cccc(C(F)(F)F)c1)[C@@H]1CS[C@H]2c3ccccc3C(=O)N12 [4aD] | 96.16% | 114.41% | 103.29% | 22.37 | 46.64 | 97.10% | 89.32% | 101.49% | 88.01% | 106.15% | 101.09% | 89.33% | 100.26% | 98.14% | 95.03% | 93.97% | 99.20% | 92.70% | 94.74% | 94.54% | Growth Percent [19]: 94.10%; Growth Percent [20]: 100.33%; Growth Percent [21]: 104.21%; Growth Percent [22]: 89.84%; Growth Percent [23]: 97.67%; Growth Percent [24]: 110.09%; Growth Percent [25]: 97.61%; Growth Percent [26]: 105.79%; Growth Percent [27]: 98.82%; Growth Percent [28]: 103.16%; Growth Percent [29]: 95.38%; Growth Percent [30]: 95.15%; Growth Percent [31]: 121.37%
COc1ccc(CNC(=O)[C@@H]2CS[C@H]3c4ccccc4C(=O)N23)cc1 [4aF] | 101.17% | 117.51% | 106.31% | 26.11 | 46.82 | 101.29% | 97.39% | 107.51% | 99.01% | 100.21% | 95.49% | 99.90% | 100.31% | 110.21% | 95.57% | 88.19% | 97.27% | 103.55% | 98.53% | 101.90% | Growth Percent [19]: 118.58%; Growth Percent [20]: 108.19%; Growth Percent [21]: 106.29%; Growth Percent [22]: 91.16%; Growth Percent [23]: 95.48%; Growth Percent [24]: 104.20%; Growth Percent [25]: 97.50%; Growth Percent [26]: 110.64%; Growth Percent [27]: 100.55%; Growth Percent [28]: 105.77%; Growth Percent [29]: 93.78%; Growth Percent [30]: 90.14%; Growth Percent [31]: 114.93%
COc1cc(CNC(=O)[C@@H]2CS[C@H]3c4ccccc4C(=O)N23)cc(OC)c1OC [4aJ] | 104.63% | 110.79% | 101.46% | 15.66 | 30.62 | 98.66% | 98.86% | 89.92% | 93.11% | 105.79% | 100.59% | 90.55% | 99.61% | 99.01% | 107.19% | 107.00% | 96.01% | 92.77% | 104.21% | 95.00% | Growth Percent [19]: 95.25%; Growth Percent [20]: 100.31%; Growth Percent [21]: 105.82%; Growth Percent [22]: 92.01%; Growth Percent [23]: 94.62%; Growth Percent [24]: 101.31%; Growth Percent [25]: 95.05%; Growth Percent [26]: 104.76%; Growth Percent [27]: 103.41%; Growth Percent [28]: 100.74%; Growth Percent [29]: 102.86%; Growth Percent [30]: 92.64%; Growth Percent [31]: 113.62%

Reference: article PMC11855478, “Bicyclic N,S-Acetals Containing Fused Cysteine-Amide System as New Heterocyclic Class Targeting Human Farnesyltransferase (FTase-h)” (International Journal of Molecular Sciences, 2025)
